# Laboratory results from PMC3438169 (PLoS ONE, 2012).
# Where a SMILES comes first, the peptide text is derived from it. The star is where a group is joined. Cbz = O=C(OCc1ccccc1)*
# Legend:
# [1] = tested on: Cox4-GFP labeled mitochondria; test: Microscopy of mitochondrial morphology (Cox4-GFP); type: cell-based, S. cerevisiae; conditions: Benomyl 3× IC30 (90 µM), 30 minutes
# Description: BY4741 cells containing a genomic COX4-GFP fusion where grown to mid-log phase in glucose and ethanol/glycerol media and incubated with the corresponding concentrations of compound for 30 minutes. Aliquots where spotted on microscopy slides and directly imaged on a Zeiss Axiovert 200Mot microscope equipped with a AxioCam MRm digital camera using the Plan-Neofluar 100×, 1.3 oil PH3 objective (Carl Zeiss, Feldbach, Switzerland). A z-stack consisting of 3 images spaced by […] in the filterset 38 (eGFP) channel and a phase-contrast image where acquired. False colors where applied to the GFP images (green) and phase contrast (blue) and the images merged into one plane and scaled to 8-bit. Representative, individual cells where selected and assembled into a panel using Adobe Photoshop (Adobe Systems Inc.).
# [2] = tested on: HCT116; test: Cell viability (CellTiter-Glo), HCT116 with siRNA or mEF-G1 variants; type: cell-based, human; conditions: 7 days
# Description: (§1) HCT116 (ATCC, CCL-247) and RKO (ATCC, CRL-2577) cell lines were maintained in a humidified incubator at 37°C and 5% CO2 in RPMI1640 supplemented with 10% FBS. Cell viability was determined using the CellTiter-Glo luminescent cell viability assay (Promega). […] Subsequently, 40 µl of CellTiter-Glo reagent was added to each well and luminescence recorded on an Envision plate reader (Perkin Elmer). Each treatment condition was tested in triplicate and compared to an equivalent volume of DMSO as control.
# (§2) Non-targeting (NT) or GFM1 siRNA pools were obtained from Dharmacon (ON-TARGETplus SMART pool D-001810 and L-013685). HCT116 and RKO cells were reverse transfected in 6-well plates using RNAiMax (Invitrogen) and 25 nM siRNA. After 2 days, cells were harvested by trypsinization and re-plated into 6-well plates for western blot analysis or into 384-well plates for compound treatments and cell viability determination using CellTiter-Glo as described above.
# (§3) The human GFM1 cDNA (encoding mEF-G1, Table 2) was mutagenized in pENTR221 (Invitrogen) using QuikChangeII XL site-directed mutagenesis (Stratagene). The following point mutations were introduced: C1355T (encoding S452L), C1481T (encoding S494F) and T2078A (encoding L693Q). The GFM1 cDNAs were then subcloned into the mammalian expression vector pLenti4/TO/V5 using LR clonase II (Invitrogen) and sequence-verified. The pLenti4 constructs were then co-transfected with a lentiviral plasmid mix (encoding LP1, LP2 and VSV-G) into 293T cells, and viral particles were harvested after 72 h and used to infect HCT116 and RKO cells. Stable cell lines were generated by selection with 400 µg/ml Zeocin and plated into 6-well plates for western blot analysis or into 384-well plates for compound treatments and cell viability determination using CellTiter-Glo as described above.
# [3] = tested on: RKO; test: Cell viability (CellTiter-Glo), RKO with siRNA or mEF-G1 variants; type: cell-based, human; conditions: 7 days
# Description: as §1, §2, §3
# [4] = tested on: 512 human cancer cell lines; test: Compound correlation analysis across the cell line panel; type: cell-based; conditions: Pearson correlation across 512 cell lines
# Description: All cell lines were maintained in humidified incubators at 37°C and 5% CO2 in DMEM or RPMI1640 supplemented with 10% FBS. Cells were seeded into 1536-well plates at a density of 250 cells per well, allowed to adhere for 12–24 hours, then treated for 3 days with pharmacological agents in 8-point dose response (semi-log from 8 µM to 2.5 nM), and cell viability was assessed using CellTiter Glo (Promega). […] Compound correlation analysis was performed by calculating a Pearson correlation for each compound pair (using either IC50 or Amax values) across the 512 cell lines. We required data values for a minimum of 50 cell lines in common to avoid spuriously high correlations.
# [5] = tested on: angiogenesis; conditions: p27-dependent mechanism; ref [6], [7], [8], [9]; cited from earlier work
# Source text: (§4) Natural products constitute a major resource for the identification of bioactive molecules. Indeed, most antibacterials in current use are natural products or semisynthetic derivatives thereof. The argyrins are natural peptides produced by myxobacteria and actinomycetes that have an intriguing antibacterial spectrum of activity, [2], [3]. This includes the intrinsically drug resistant organism Pseudomonas aeruginosa, but not other Gram negatives tested, such as Escherichia coli or Salmonella typhimurium, unless the cells are compromised in their outer membrane permeability barrier, p ...
# [6] = tested on: apoptosis; conditions: ref [6], [7], [8], [9]; cited from earlier work
# Source text: as §4
# [7] = tested on: proteasome; conditions: ref [6], [7], [8], [9]; cited from earlier work
# Source text: as §4
# [8] = tested on: EF-G in complex with the ribosome; conditions: ref [22], [23], [24]; cited from earlier work
# Source text: This may stand in contrast to the characterized inhibitor of EF-G, fusidic acid, which binds at the GDP/GTP binding pocket and interferes with the post translocation release of EF-G bound on the riboso ...
compound,measurement,setting,value
"CCCCNC(=O)n1c(NC(=O)OC)nc2ccccc21 [benomyl, reference compound]",Effect on mitochondria (in words),[1],had no effect on mitochondria
"CC(C)C[C@@H](C=O)NC(=O)[C@H](CC(C)C)NC(=O)[C@H](CC(C)C)NC(=O)OCc1ccccc1 [MG132, reference compound] (Cbz-Leu-Leu-Leu-aldehyde)",Sensitivity change on knock down of mEF-G1 (in words),"[2]; HCT116, GFM1 siRNA",without altering sensitivity
same,Sensitivity change on expression of mEF-G1 L693Q (in words),"[2]; HCT116, mEF-G1 L693Q",without altering sensitivity
same,Sensitivity change on knock down of mEF-G1 (in words),[3]; GFM1 siRNA,without altering sensitivity
same,Sensitivity change on expression of mEF-G1 L693Q (in words),[3]; mEF-G1 L693Q,without altering sensitivity
argyrin A,Correlation of IC50 and maximal activity (Amax) profile with argyrin B (in words),[4],strong correlation
same,Angiogenesis (in words),[5],blocks angiogenesis
same,Apoptosis (in words),[6],induces apoptosis
same,Proteasome inhibition (in words),[7],inhibits the proteasome
CC(=O)O[C@H]1C[C@@]2(C)[C@@H](C[C@@H](O)[C@H]3[C@@]4(C)CC[C@@H](O)[C@@H](C)[C@@H]4CC[C@@]32C)/C1=C(\CCC=C(C)C)C(=O)O [fusidic acid],Binding to EF-G (in words),[8],binds EF-G in complex with the ribosome
